Structures can show the parent of a compound that is named as a salt.
Target: ATM (Homo sapiens (Human), UniProt Q13315)
Assay: ATM in Cell Western Assay (pKAP1 in etoposide-treated MCF-7 cells)
Type: cell-based
Settings: pKAP1 in etoposide-treated MCF-7 cells
Procedure, shortened: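 Cells received compounds in a 10-dose, 3-fold series from a 1 μM final top concentration, then 100 μM etoposide, for 1 hr at 37° C. They were then fixed with paraformaldehyde and permeabilized with 0.1% Triton X-100. After immunostaining, plates were scanned on an infrared imager.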

ATM, sequence (Q13315 whole entry): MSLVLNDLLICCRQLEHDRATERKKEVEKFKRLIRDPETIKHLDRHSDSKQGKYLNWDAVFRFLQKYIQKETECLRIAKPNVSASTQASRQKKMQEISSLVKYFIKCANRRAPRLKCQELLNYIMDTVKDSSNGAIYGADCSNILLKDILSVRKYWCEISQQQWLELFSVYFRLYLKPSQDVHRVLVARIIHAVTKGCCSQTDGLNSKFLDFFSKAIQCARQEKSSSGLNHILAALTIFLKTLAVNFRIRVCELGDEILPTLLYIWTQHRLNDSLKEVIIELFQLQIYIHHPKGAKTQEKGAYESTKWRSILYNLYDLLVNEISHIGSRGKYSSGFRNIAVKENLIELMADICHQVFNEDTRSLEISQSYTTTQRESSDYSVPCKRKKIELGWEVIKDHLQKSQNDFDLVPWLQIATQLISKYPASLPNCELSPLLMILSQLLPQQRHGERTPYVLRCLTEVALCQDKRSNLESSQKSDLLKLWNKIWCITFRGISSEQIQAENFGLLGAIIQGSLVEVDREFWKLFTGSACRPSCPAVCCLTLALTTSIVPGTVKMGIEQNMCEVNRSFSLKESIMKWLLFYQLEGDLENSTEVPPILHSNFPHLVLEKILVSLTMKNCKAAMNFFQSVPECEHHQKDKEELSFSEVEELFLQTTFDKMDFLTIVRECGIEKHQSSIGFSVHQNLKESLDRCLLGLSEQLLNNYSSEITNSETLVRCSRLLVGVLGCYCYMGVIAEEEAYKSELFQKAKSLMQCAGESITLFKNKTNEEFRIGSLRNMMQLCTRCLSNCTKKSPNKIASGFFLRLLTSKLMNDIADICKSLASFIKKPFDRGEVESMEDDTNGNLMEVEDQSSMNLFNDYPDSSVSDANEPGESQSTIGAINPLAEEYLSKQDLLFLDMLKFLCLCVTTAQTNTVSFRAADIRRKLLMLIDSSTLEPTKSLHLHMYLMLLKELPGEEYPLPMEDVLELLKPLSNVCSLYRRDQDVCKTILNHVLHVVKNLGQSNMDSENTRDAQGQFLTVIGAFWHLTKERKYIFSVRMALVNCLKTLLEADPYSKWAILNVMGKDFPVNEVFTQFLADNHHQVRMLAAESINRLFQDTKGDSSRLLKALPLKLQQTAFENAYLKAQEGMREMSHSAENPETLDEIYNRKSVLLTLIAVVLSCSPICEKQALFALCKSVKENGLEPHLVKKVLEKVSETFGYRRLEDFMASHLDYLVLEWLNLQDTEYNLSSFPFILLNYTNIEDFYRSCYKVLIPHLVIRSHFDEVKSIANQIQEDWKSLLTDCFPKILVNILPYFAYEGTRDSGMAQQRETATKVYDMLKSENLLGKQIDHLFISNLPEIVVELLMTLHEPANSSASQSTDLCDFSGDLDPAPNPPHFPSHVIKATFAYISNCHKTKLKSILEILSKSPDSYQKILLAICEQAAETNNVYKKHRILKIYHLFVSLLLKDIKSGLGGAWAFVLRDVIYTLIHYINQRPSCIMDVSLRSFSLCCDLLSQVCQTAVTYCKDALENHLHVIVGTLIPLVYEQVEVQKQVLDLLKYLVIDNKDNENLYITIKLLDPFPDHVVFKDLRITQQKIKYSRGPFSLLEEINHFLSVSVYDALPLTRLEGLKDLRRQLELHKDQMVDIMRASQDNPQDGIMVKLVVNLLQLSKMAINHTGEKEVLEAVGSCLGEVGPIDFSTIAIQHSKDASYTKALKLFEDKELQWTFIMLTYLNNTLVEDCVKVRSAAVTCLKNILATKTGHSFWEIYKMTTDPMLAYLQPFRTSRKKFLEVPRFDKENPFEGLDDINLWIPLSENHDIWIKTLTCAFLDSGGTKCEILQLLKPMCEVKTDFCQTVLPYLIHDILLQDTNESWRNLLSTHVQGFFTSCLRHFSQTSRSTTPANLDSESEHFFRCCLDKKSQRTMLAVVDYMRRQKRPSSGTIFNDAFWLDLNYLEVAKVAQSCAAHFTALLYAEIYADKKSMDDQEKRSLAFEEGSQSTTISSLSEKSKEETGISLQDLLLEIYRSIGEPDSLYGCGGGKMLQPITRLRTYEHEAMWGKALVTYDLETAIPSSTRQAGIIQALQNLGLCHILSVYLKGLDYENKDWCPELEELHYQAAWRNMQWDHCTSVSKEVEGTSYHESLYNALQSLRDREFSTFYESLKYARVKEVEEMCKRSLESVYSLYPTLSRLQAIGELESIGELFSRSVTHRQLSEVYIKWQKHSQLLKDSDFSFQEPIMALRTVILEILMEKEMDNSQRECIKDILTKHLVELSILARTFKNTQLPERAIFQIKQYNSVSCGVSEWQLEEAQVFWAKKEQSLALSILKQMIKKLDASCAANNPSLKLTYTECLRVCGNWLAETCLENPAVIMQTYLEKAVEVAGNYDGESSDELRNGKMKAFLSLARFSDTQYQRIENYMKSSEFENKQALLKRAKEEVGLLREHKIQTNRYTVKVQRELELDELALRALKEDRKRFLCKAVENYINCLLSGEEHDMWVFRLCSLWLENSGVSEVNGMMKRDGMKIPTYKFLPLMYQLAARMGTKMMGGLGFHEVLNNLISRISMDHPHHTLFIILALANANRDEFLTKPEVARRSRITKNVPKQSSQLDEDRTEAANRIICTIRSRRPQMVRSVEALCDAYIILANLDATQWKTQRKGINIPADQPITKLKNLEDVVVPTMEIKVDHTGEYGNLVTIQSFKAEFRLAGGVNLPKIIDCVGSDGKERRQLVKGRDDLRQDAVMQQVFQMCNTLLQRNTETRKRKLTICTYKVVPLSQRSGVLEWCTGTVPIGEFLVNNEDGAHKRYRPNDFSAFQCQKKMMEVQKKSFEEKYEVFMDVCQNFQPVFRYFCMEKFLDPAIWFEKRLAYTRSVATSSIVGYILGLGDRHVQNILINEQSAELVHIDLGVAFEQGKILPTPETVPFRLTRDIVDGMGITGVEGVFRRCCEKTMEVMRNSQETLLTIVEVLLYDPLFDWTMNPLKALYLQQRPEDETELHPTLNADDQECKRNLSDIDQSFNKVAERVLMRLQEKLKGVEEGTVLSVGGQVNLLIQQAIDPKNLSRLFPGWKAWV

Question: For `CC(C)NCCOc1ncc(-c2cc3c(cc2F)ncc2c3[C@]3(C[C@H](N(C)C)C3)C(=O)N2C)cc1NS(C)(=O)=O` [Example 465, cis-N-(5-(3-(Dimethylamino)-7′-fluoro-3′-methyl-2′-oxo-2′,3′-dihydrospiro[cyclobutane-1,1′-pyrrolo[2,3-c]quinolin]-8′-yl)-2-(2-(isopropylamino)ethoxy)pyridin-3-yl)methanesulfonamide], which IC50 is on record?
Answer: Its IC50 is 1 to 100 nM.

Question: With `CC(C)NCCOc1ncc(-c2cc3c(cc2F)ncc2c3[C@]3(C[C@@H](N(C)C)C3)C(=O)N2C)cc1NS(C)(=O)=O` [Example 466, trans-N-(5-{3-(Dimethylamino)-7′-fluoro-3′-methyl-2′-oxo-2′,3′-dihydrospiro[cyclobutane-1,1′-pyrrolo[2,3-c]quinolin]-8′-yl)-2-(2-(isopropylamino)ethoxy)pyridin-3-yl)methanesulfonamide] as the compound, how does the IC50 read?
Answer: Its IC50 is 1 to 100 nM.

Question: Which IC50 does the source give for `CC(C)NCCOc1ncc(-c2cc3c(cc2F)ncc2c3[C@]3(C[C@H](N4CCCC4)C3)C(=O)N2C)cc1NS(C)(=O)=O` [Example 467, cis-N-(5-(7′-Fluoro-3′-methyl-2′-oxo-3-(pyrrolidin-1-yl)-2′,3′-dihydrospiro[cyclobutane-1,1′-pyrrolo[2,3-c]quinolin]-8′-yl)-2-(2-(isopropylamino)ethoxy)pyridin-3-yl)methanesulfonamide] here?
Answer: Its IC50 is 1 to 100 nM.

Question: Which IC50 does the source give for `CC(C)NCCOc1ncc(-c2cc3c(cc2F)ncc2c3[C@]3(C[C@@H](N4CCCC4)C3)C(=O)N2C)cc1NS(C)(=O)=O` [Example 468, trans-N-(5-(7′-Fluoro-3′-methyl-2′-oxo-3-(pyrrolidin-1-yl)-2′,3′-dihydrospiro[cyclobutane-1,1′-pyrrolo[2,3-c]quinolin]-8′-yl)-2-(2-(isopropylamino)ethoxy)pyridin-3-yl)methanesulfonamide] here?
Answer: The IC50 was 1 to 100 nM.

Question: Which IC50 does the source give for `CC(C)NCCOc1ncc(-c2cc3c(cc2F)ncc2c3[C@]3(C[C@H](N4CCCCC4)C3)C(=O)N2C)cc1NS(C)(=O)=O` [Example 469, cis-N-(5-(7′-Fluoro-3′-methyl-2′-oxo-3-(piperidin-1-yl)-2′,3′-dihydrospiro[cyclobutane-1,1′-pyrrolo[2,3-c]quinolin]-8′-yl)-2-(2-(isopropylamino)ethoxy)pyridin-3-yl)methanesulfonamide] here?
Answer: Its IC50 is 1 to 100 nM.

Question: For `CC(C)NCCOc1ncc(-c2cc3c(cc2F)ncc2c3[C@]3(C[C@@H](N4CCCCC4)C3)C(=O)N2C)cc1NS(C)(=O)=O` [Example 470, trans-N-{5-(7′-Fluoro-3′-methyl-2′-oxo-3-(piperidin-1-yl)-2′,3′-dihydrospiro[cyclobutane-1,1′-pyrrolo[2,3-c]quinolin]-8′-yl)-2-(2-(isopropylamino)ethoxy)pyridin-3-yl)methanesulfonamide hydrochloride], which IC50 is on record?
Answer: Its IC50 is 1 to 100 nM.

Question: How did the IC50 turn out when `CC(C)NCCOc1ncc(-c2cc3c(cc2F)ncc2c3[C@]3(C[C@H](N4CCOCC4)C3)C(=O)N2C)cc1NS(C)(=O)=O` [Example 471, cis-N-(5-(7′-Fluoro-3′-methyl-3-morpholino-2-oxo-2′,3′-dihydrospiro[cyclobutane-1,1′-pyrrolo[2,3-c]quinolin]-8′-yl)-2-(2-(isopropylamino)ethoxy)pyridin-3-yl)methanesulfonamide] was run?
Answer: The IC50 was 1 to 100 nM.

Question: `CC(C)NCCOc1ncc(-c2cc3c(cc2F)ncc2c3[C@]3(C[C@@H](N4CCOCC4)C3)C(=O)N2C)cc1NS(C)(=O)=O` [Example 472, trans-N-(5-(7′-Fluoro-3′-methyl-3-morpholino-2′-oxo-2′,3′-dihydrospiro[cyclobutane-1,1′-pyrrolo[2,3-c]quinolin]-8′-yl)-2-(2-(isopropylamino)ethoxy)pyridin-3-yl)methanesulfonamide] was tested. Which IC50 did it give?
Answer: Its IC50 is > 100 nM.

Question: For `CN[C@H]1C[C@@]2(C1)C(=O)N(C)c1cnc3cc(F)c(-c4cnc(OCCNC(C)C)c(NS(C)(=O)=O)c4)cc3c12` [Example 473, trans-N-(5-(7′-Fluoro-3′-methyl-3-(methylamino)-2′-oxo-2′,3′-dihydrospiro[cyclobutane-1,1′-pyrrolo[2,3-c]quinolin]-8′-yl)-2-(2-(isopropylamino)ethoxy)pyridin-3-yl)methanesulfonamide], which IC50 is on record?
Answer: Its IC50 is 1 to 100 nM.

Question: How did the IC50 turn out when `COCCN[C@H]1C[C@@]2(C1)C(=O)N(C)c1cnc3cc(F)c(-c4cnc(OCCNC(C)C)c(NS(C)(=O)=O)c4)cc3c12` [Example 474, trans-N-{5-(7′-Fluoro-3-((2-methoxyethyl)amino)-3′-methyl-2′-oxo-2′,3′-dihydrospiro[cyclobutane-1,1′-pyrrolo[2,3-c]quinolin]-8′-yl)-2-(2-(isopropylamino)ethoxy)pyridin-3-yl)methanesulfonamide] was run?
Answer: The IC50 was 1 to 100 nM.

Question: `CC(C)NCCOc1ncc(-c2cc3c(cc2F)ncc2c3[C@]3(C[C@H](n4ccccc4=O)C3)C(=O)N2C)cc1NS(C)(=O)=O` [Example 475, cis-N-(5-(7′-Fluoro-3′-methyl-2′-oxo-3-(2-oxopyridin-1(2H)-yl)-2′,3′-dihydrospiro[cyclobutane-1,1′-pyrrolo[2,3-c]quinolin]-8′-yl)-2-(2-(isopropylamino)ethoxy)pyridin-3-yl)methanesulfonamide] was tested. Which IC50 did it give?
Answer: Its IC50 is > 100 nM.

Question: For `CC(C)NCCOc1ncc(-c2cc3c(cc2F)ncc2c3[C@]3(C[C@H](n4cccn4)C3)C(=O)N2C)cc1NS(C)(=O)=O` [Example 476, cis-N-(5-(7′-Fluoro-3′-methyl-2′-oxo-3-(1H-pyrazol-1-yl)-2′,3′-dihydrospiro[cyclobutane-1,1′-pyrrolo[2,3-c]quinolin]-8′-yl)-2-(2-(isopropylamino)ethoxy)pyridin-3-yl)methanesulfonamide], which IC50 is on record?
Answer: The IC50 was > 100 nM.

Question: With `CN(C)CCCOc1ncc(-c2ccc3ncc4c(c3c2)C2(CN(C(=O)OC(C)(C)C)C2)C(=O)N4C)cc1NS(C)(=O)=O` [Example 479, tert-Butyl 8′-(6-(3-(dimethylamino)propoxy)-5-(methylsulfonamido)pyridin-3-yl)-3′-methyl-2′-oxo-2′,3′-dihydrospiro[azetidine-3,1′-pyrrolo[2,3-c]quinoline]-1-carboxylate] as the compound, how does the IC50 read?
Answer: Its IC50 is 1 to 100 nM.

Question: Which IC50 does the source give for `CN1C(=O)C2(CN(CC(F)(F)F)C2)c2c1cnc1ccc(-c3cnc(N4CC(N(C)C)C4)c(NS(C)(=O)=O)c3)cc21` [Example 480] here?
Answer: The IC50 was 1 to 100 nM.

Question: For `CC(C)NCCOc1ncc(-c2cc3c4c(cnc3cc2F)N(C)C(=O)C42CN(C)C2)cc1NS(C)(=O)=O` [Example 481, N-(5-(7′-Fluoro-1,3′-dimethyl-2′-oxo-2′,3′-dihydrospiro[azetidine-3,1′-pyrrolo[2,3-c]quinolin]-8′-yl)-2-(2-(isopropylamino)ethoxy)pyridin-3-yl)methanesulfonamide hydrochloride], which IC50 is on record?
Answer: The IC50 was 1 to 100 nM.

Question: `CCN1CC2(C1)C(=O)N(C)c1cnc3cc(F)c(-c4cnc(OCCNC(C)C)c(NS(C)(=O)=O)c4)cc3c12` [Example 482, N-(5-(1-Ethyl-7-fluoro-3′-methyl-2′-oxo-2′,3′-dihydrospiro[azetidine-3,1′-pyrrolo[2,3-c]quinolin]-8′-yl)-2-(2-(isopropylamino)ethoxy)pyridin-3-yl)methanesulfonamide] was tested. Which IC50 did it give?
Answer: Its IC50 is 1 to 100 nM.

Question: With `CCC(C)N1CC2(C1)C(=O)N(C)c1cnc3cc(F)c(-c4cnc(OCCNC(C)C)c(NS(C)(=O)=O)c4)cc3c12` (stereo not drawn) [Example 487, N-(5-(1-(sec-Butyl)-7′-fluoro-3′-methyl-2′-oxo-2′,3′-dihydrospiro[azetidine-3,1′-pyrrolo[2,3-c]quinolin]-8′-yl)-2-(2-(isopropylamino)ethoxy)pyridin-3-yl)methanesulfonamide] as the compound, how does the IC50 read?
Answer: The IC50 was 1 to 100 nM.

Question: How did the IC50 turn out when `CCCN1CC2(C1)C(=O)N(C)c1cnc3cc(F)c(-c4cnc(OCCNC(C)C)c(NS(C)(=O)=O)c4)cc3c12` [Example 488, N-(5-(7′-Fluoro-3′-methyl-2′-oxo-1-propyl-2′,3′-dihydrospiro[azetidine-3,1′-pyrrolo[2,3-c]quinolin]-8′-yl)-2-(2-(isopropylamino)ethoxy)pyridin-3-yl)methanesulfonamide] was run?
Answer: Its IC50 is 1 to 100 nM.

Question: For `CCCCN1CC2(C1)C(=O)N(C)c1cnc3cc(F)c(-c4cnc(OCCNC(C)C)c(NS(C)(=O)=O)c4)cc3c12` [Example 489, N-(5-(1-butyl-7′-fluoro-3′-methyl-2′-oxo-2′,3′-dihydrospiro[azetidine-3,1′-pyrrolo[2,3-c]quinolin]-8′-yl)-2-(2-(isopropylamino)ethoxy)pyridin-3-yl)methanesulfonamide], which IC50 is on record?
Answer: Its IC50 is 1 to 100 nM.

Question: How did the IC50 turn out when `CCC(CC)N1CC2(C1)C(=O)N(C)c1cnc3cc(F)c(-c4cnc(OCCNC(C)C)c(NS(C)(=O)=O)c4)cc3c12` [Example 490, N-(5-(7′-Fluoro-3′-methyl-2′-oxo-1-(pentan-3-yl)-2′,3′-dihydrospiro[azetidine-3,1′-pyrrolo[2,3-c]quinolin]-8′-yl)-2-(2-(isopropylamino)ethoxy)pyridin-3-yl)methanesulfonamide] was run?
Answer: Its IC50 is 1 to 100 nM.

Question: With `CC(C)CN1CC2(C1)C(=O)N(C)c1cnc3cc(F)c(-c4cnc(OCCNC(C)C)c(NS(C)(=O)=O)c4)cc3c12` [Example 491, N-(5-(7′-Fluoro-1-isobutyl-3′-methyl-2′-oxo-2′,3′-dihydrospiro[azetidine-3,1′-pyrrolo[2,3-c]quinolin]-8′-yl)-2-(2-(isopropylamino)ethoxy)pyridin-3-yl)methanesulfonamide] as the compound, how does the IC50 read?
Answer: Its IC50 is 1 to 100 nM.

Question: `CC(C)CCN1CC2(C1)C(=O)N(C)c1cnc3cc(F)c(-c4cnc(OCCNC(C)C)c(NS(C)(=O)=O)c4)cc3c12` [Example 492, N-(5-(7′-Fluoro-1-isopentyl-3′-methyl-2′-oxo-2′,3′-dihydrospiro[azetidine-3,1′-pyrrolo[2,3-c]quinolin]-8′-yl)-2-(2-(isopropylamino)ethoxy)pyridin-3-yl)methanesulfonamide] was tested. Which IC50 did it give?
Answer: Its IC50 is > 100 nM.

Question: How did the IC50 turn out when `CC(C)NCCOc1ncc(-c2cc3c4c(cnc3cc2F)N(C)C(=O)C42CN([C@@H](C)c3ccccc3)C2)cc1NS(C)(=O)=O` [Example 493, (S)-N-(5-(7′-Fluoro-3′-methyl-2′-oxo-1-(1-phenylethyl)-2′,3′-dihydrospiro [azetidine-3,1′-pyrrolo[2,3-c]quinolin]-8′-yl)-2-(2-(isopropylamino)ethoxy)pyridin-3-yl)methanesulfonamide] was run?
Answer: Its IC50 is 1 to 100 nM.

Question: `CC(C)NCCOc1ncc(-c2cc3c4c(cnc3cc2F)N(C)C(=O)C42CN([C@H](C)c3ccccc3)C2)cc1NS(C)(=O)=O` [Example 494] was tested. Which IC50 did it give?
Answer: Its IC50 is > 100 nM.

From patent US12187742B2 (XRAD Therapeutics, Inc., priority 2018, dated 2025)
